Reference: patent US10851082B2, “Substituted aromatic n-heterocyclic compounds as inhibitors of mitogen-activated protein kinase interacting kinase 1 (MNK1) and 2 (MNK2)” (Northwestern University, priority 2015, dated 2020)
Read-outs that look alike come from different tables or passages of the source.

Experiments:
[1] = biological target: Mnk1 (Homo sapiens (Human), UniProt Q9BUB5); assay: Mnk1 kinase inhibition, ADP-Glo ADP monitoring assay; type: biochemical; conditions: for IC50: read-out: Mnk1 IC50
Description: (§1) The synthesized compounds then were tested for inhibition of the kinase activity (IC50) of Mnk1 and/or Mnk2 using the ADP monitoring assay for kinases described in Zegzouti, H.; Zdanovskaia, M.; Hsiao, K.; Goueli, S. A., ADP-Glo: A Bioluminescent and homogeneous ADP monitoring assay for kinases.

[2] = biological target: Mnk2 (Homo sapiens (Human), UniProt Q9HBH9); assay: Mnk2 kinase inhibition, ADP-Glo ADP monitoring assay; type: biochemical; conditions: ADP-Glo kinase assay
Description: as §1

[3] = read-out: Mnk2 inhibition IC50 (+,++,+++)

Chain of Mnk1 (Q9BUB5 whole entry): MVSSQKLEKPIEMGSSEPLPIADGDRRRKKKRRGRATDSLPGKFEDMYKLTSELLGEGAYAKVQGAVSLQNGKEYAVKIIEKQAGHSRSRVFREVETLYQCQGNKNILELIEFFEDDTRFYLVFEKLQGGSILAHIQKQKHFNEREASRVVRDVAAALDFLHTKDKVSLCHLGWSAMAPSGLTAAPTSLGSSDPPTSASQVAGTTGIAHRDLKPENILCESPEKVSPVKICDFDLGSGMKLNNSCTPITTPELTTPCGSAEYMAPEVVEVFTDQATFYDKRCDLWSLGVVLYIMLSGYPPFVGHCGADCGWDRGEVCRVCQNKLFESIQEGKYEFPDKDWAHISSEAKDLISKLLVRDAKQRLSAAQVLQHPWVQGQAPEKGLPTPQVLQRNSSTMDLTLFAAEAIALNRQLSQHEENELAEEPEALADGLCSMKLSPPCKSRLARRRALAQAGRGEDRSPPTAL
Chain of Mnk2 (Q9HBH9 whole entry): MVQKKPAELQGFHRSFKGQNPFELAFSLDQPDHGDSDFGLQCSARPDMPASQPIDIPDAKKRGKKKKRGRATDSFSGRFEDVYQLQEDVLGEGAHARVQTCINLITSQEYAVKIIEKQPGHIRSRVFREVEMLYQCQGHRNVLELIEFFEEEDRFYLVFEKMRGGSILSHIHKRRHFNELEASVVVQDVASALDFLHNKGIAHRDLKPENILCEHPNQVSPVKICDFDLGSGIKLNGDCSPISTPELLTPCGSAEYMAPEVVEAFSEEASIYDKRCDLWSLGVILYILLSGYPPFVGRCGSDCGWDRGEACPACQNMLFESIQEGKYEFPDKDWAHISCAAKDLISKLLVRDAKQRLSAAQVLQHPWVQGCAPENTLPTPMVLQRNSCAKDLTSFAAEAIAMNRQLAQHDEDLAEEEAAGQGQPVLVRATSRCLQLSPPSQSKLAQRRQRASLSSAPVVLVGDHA

Row | SMILES | IC50 [1] | IC50 ([2]; read-out: Mnk2 IC50) | also measured
1 | CCNc1nccc(-c2cnn(-c3cccc(OC)c3)c2)n1 [NUCC-0054132] | 9000 nM | – | –
2 | COc1cccc(-n2cc(-c3ccnc(NCCc4c[nH]cn4)n3)cn2)c1 [NUCC-0054133] | 7000 nM | 1800 nM | –
3 | Clc1cccc(-n2cc(-c3ccnc(NCc4ccncc4)n3)cn2)c1 [NUCC-0054134] | 6000 nM | – | –
4 | COc1cccc(-n2cc(-c3ccnc(NCCN4CCOCC4)n3)cn2)c1 [NUCC-0054138] | 12000 nM | – | –
5 | CCCn1ncc(-c2ccnc(NCc3nccn3CC)n2)c1C [NUCC-0054147] | 6000 nM | 16000 nM | –
6 | Cn1cc(-c2ccnc(NCCN3CCOCC3)n2)cn1 [NUCC-0060894] | 4000 nM | – | –
7 | Cn1cc(-c2ccnc(NCCCN3CCCCC3)n2)cn1 [NUCC-0060895] | 5000 nM | – | –
8 | Cn1cc(-c2ccnc(N3CCC[C@H]3CO)n2)cn1 [NUCC-0060896] | 3000 nM | 3400 nM | –
9 | Cn1cc(-c2ccnc(NCc3ccc(F)cc3)n2)cn1 [NUCC-0060897] | 9000 nM | – | –
10 | c1ccc2c(c1)ccn2-c1ccnc(NCCN2CCOCC2)n1 [NUCC-0060953] | 9000 nM | – | –
11 | c1ccc2c(c1)ccn2-c1ccnc(NCCc2cnc[nH]2)n1 [NUCC-0060955] | 16000 nM | 5000 nM | –
12 | c1ccc2c(c1)ncn2-c1ccnc(NCCN2CCOCC2)n1 [NUCC-0060956] | 1000 nM | – | –
13 | c1cc(CNc2nccc(-c3cnn(C4CCOCC4)c3)n2)ccn1 [NUCC-0060959] | 90000 nM | – | –
14 | c1ccc(-n2cc(-c3ccnc(NCCc4c[nH]cn4)n3)cn2)cc1 [NUCC-0060965] | 30000 nM | – | –
15 | c1cc(CCNc2nccc(-c3cnn(CCN4CCOCC4)c3)n2)ccn1 [NUCC-0060970] | 70000 nM | – | –
16 | c1ccc(Cn2cc(-c3ccnc(NCCc4c[nH]cn4)n3)cn2)cc1 [NUCC-0060971] | 19000 nM | – | –
17 | c1ccc(Cn2cc(-c3ccnc(NCCc4ccncc4)n3)cn2)cc1 [NUCC-0060972] | 19000 nM | 2500 nM | –
18 | COc1cccc(-n2cc(-c3ccnc(NCCCN4CCOCC4)n3)cn2)c1 [NUCC-0077154, 4-(1-(3-methoxyphenyl)-1H-pyrazol-4-yl)-N-(3-morpholinopropyl)pyrimidin-2-amine] | 28000 nM | – | –
19 | COc1cccc(-n2cc(-c3ccnc(NCc4ccccc4)n3)cn2)c1 [NUCC-0077155] | 21000 nM | – | –
20 | COc1cccc(-n2cc(-c3ccnc(NCc4ccncc4)n3)cn2)c1 [NUCC-0077163] | 8000 nM | – | –
21 | COc1cccc(-n2cc(-c3ccnc(NC4CCNCC4)n3)cn2)c1 [NUCC-0077164] | 6000 nM | – | –
22 | COc1cccc(-n2cc(-c3ccnc(NC4CCOC4)n3)cn2)c1 (stereo not drawn) [NUCC-0077165] | 6000 nM | – | –
23 | COc1cccc(-n2cc(-c3ccnc(NCCN(C)C)n3)cn2)c1 [NUCC-0077166] | 4000 nM | – | –

Row | SMILES | IC50 [1] | IC50 ([2]; read-out: Mnk2 IC50) | also measured
24 | c1ccc(Cn2cc(-c3ccnc(NCCc4c[nH]cn4)c3)cn2)cc1 [NUCC-0077167] | 8000 nM | 7600 nM | –
25 | COc1cccc(-n2cc(-c3ccnc(Nc4ccncc4)n3)cn2)c1 [NUCC-0077168] | 19000 nM | – | –
26 | CN(C)CCNc1nccc(-n2cnc3ccccc32)n1 [NUCC-0125582] | 500 nM | 48 nM | –
27 | c1ccc2c(c1)ncn2-c1ccnc(NC2CCNCC2)n1 [NUCC-0125584] | 1400 nM | – | –
28 | c1ccc2c(c1)ncn2-c1ccnc(NCc2ccncc2)n1 [NUCC-0125586] | 500 nM | – | –
29 | CN1CCN(c2ccc(Nc3nccc(-n4cnc5ccccc54)n3)cc2)CC1 [NUCC-0125587] | 500 nM | – | –
30 | c1ccc2c(c1)ncn2-c1ccnc(Nc2ccc(N3CCCCC3)cc2)n1 [NUCC-0125588] | 200 nM | – | –
31 | COc1cccc(-n2cc(-c3ccnc(NC4CCNC4)n3)cn2)c1 (stereo not drawn) [NUCC-0125590] | 6000 nM | 780 nM | –
32 | COc1cccc(-n2cc(-c3ccnc(NC4CCOCC4)n3)cn2)c1 [NUCC-0125591] | 21000 nM | – | –
33 | c1ccc2c(c1)ncn2-c1ccnc(Nc2ccc(-n3cccn3)cc2)n1 [NUCC-0125593] | 650 nM | 39 nM | –
34 | NC(=O)c1ccc(Nc2nccc(-n3cnc4ccccc43)n2)cc1 [NUCC-0125594] | 700 nM | 30 nM | –
35 | c1ccc2c(c1)ncn2-c1ccnc(NC2CCOCC2)n1 [NUCC-0125595] | 500 nM | 83 nM | –
36 | CNC(=O)c1ccc(Nc2nccc(-n3cnc4ccccc43)n2)cc1 [NUCC-0125596] | 200 nM | 34 nM | –
37 | O=C(c1ccc(Nc2nccc(-n3cnc4ccccc43)n2)cc1)N1CCNCC1 [NUCC-0125597] | 6000 nM | – | –
38 | COc1cccc(-c2cn(-c3ccnc(NCCc4c[nH]cn4)n3)c3ccccc23)c1 [NUCC-0125599] | 29000 nM | 6200 nM | –
39 | COc1cccc(-n2cc(-c3ccnc(NCCc4ccncc4)c3)cn2)c1 [NUCC-0125601] | 5000 nM | 1700 nM | –
40 | COc1cnc(NCCc2ccncc2)nc1-n1cnc2ccccc21 [NUCC-0175698] | 5000 nM | 1800 nM | –
41 | c1ccc2c(c1)NCCN2c1ccnc(NCCc2ccncc2)n1 [NUCC-0175722] | 1200 nM | 250 nM | –
42 | c1cnc2ncn(-c3ccnc(NCCc4ccncc4)n3)c2c1 [NUCC-0176138] | 8500 nM | 6000 nM | –
43 | c1cnc2ncn(-c3ccnc(NC4CCOC4)n3)c2c1 (stereo not drawn) [NUCC-0176142] | 13000 nM | 5300 nM | –
44 | c1cc(CCNc2nccc(-n3cnc4cnccc43)n2)ccn1 [NUCC-0176143] | 4300 nM | 1100 nM | –
45 | OC1CCC(Nc2nccc(-n3cnc4ccccc43)n2)CC1 (stereo not drawn) [NUCC-0176145] | 400 nM | 52 nM | –
46 | c1ccc2c(c1)ncn2-c1ccnc(NN2CCOCC2)n1 [NUCC-0176146] | 12000 nM | 1000 nM | –

Row | SMILES | IC50 [1] | IC50 ([2]; read-out: Mnk2 IC50) | also measured
47 | OC1CCCC1Nc1nccc(-n2cnc3ccccc32)n1 (stereo not drawn) [NUCC-0176147] | 450 nM | 82 nM | –
48 | c1ccc2c(c1)ncn2-c1ccnc(N[C@@H]2CCOC2)n1 [NUCC-0176149] | – | 94 nM | –
49 | c1ccc2c(c1)ncn2-c1ccnc(NC2COC2)n1 [NUCC-0176150] | 420 nM | 90 nM | –
50 | c1ccc2c(c1)ncn2-c1ccnc(NC2CCCOC2)n1 (stereo not drawn) [NUCC-0176151] | 390 nM | 44 nM | –
51 | c1cc2c(cn1)ncn2-c1ccnc(NC2CCOC2)n1 (stereo not drawn) [NUCC-0176152] | 1600 nM | 1300 nM | –
52 | COC1CCC(Nc2nccc(-n3cnc4ccccc43)n2)CC1 (stereo not drawn) [NUCC-0176153] | 480 nM | 81 nM | –
53 | O[C@@H]1CC[C@@H](Nc2nccc(-n3cnc4ccccc43)n2)C1 [NUCC-0176165] | 340 nM | 61 nM | –
54 | OC1CCC(Nc2nccc(-n3cnc4ccccc43)n2)CC1 (stereo not drawn) [NUCC-0176166] | 390 nM | 63 nM | –
55 | COC1CCC(Nc2nccc(-n3cnc4ccccc43)n2)CC1 (stereo not drawn) [NUCC-0176167] | 300 nM | 60 nM | –
56 | c1ccc2c(c1)OCCN2c1ccnc(NCCc2ccncc2)n1 [NUCC-0176230] | 5100 nM | 3500 nM | –
57 | c1ccc2c(c1)CCN2c1ccnc(N[C@H]2CCOC2)n1 [NUCC-0176231] | 1100 nM | 380 nM | –
58 | c1ccc2c(c1)CCN2c1ccnc(N[C@@H]2CCOC2)n1 [NUCC-0176232] | 4600 nM | 2300 nM | –
59 | c1ccc2c(c1)CCN2c1ccnc(NCCc2ccncc2)n1 [NUCC-0176233] | 8500 nM | 4700 nM | –
60 | Fc1cnc(NCCc2ccncc2)nc1-n1ccc2ccccc21 [NUCC-0176283] | 8700 nM | 10000 nM | –
61 | c1ccc2c(c1)ncn2-c1cc(NCCc2ccncc2)ncn1 [NUCC-0176284] | 2600 nM | 1200 nM | –
62 | c1ccc2c(c1)ccn2-c1cc(NCCc2ccncc2)ncn1 [NUCC-0176285] | 4700 nM | 6000 nM | –
63 | c1ccc2c(c1)ncn2-c1cc(NCCc2ccncc2)cnn1 [NUCC-0176338] | – | – | Mnk1 IC50 [1]: no activity; Mnk2 IC50 [2]: no activity
64 | c1ccc2c(c1)c1ccccc1n2-c1ccnc(NCCc2ccncc2)n1 [NUCC-0176339] | 11000 nM | 10000 nM | –
65 | c1cncc(CCNc2nccc(-n3cnc4ccccc43)n2)c1 [NUCC-0176340] | 550 nM | 69 nM | –
66 | Brc1cnc(NCCc2ccncc2)nc1-n1ccnc1 [NUCC-0196229] | – | – | IC50 ([2]; unit inferred, read-out: Mnk2 IC50): 1200 nM
67 | OC1CCN(c2ncc(Cl)c(-n3cnc4ccccc43)n2)CC1 [NUCC-0200781] | – | – | IC50 [2, 3]: < 1000 nM
68 | N#Cc1cnc(-n2cnc3ccccc32)nc1NCCCc1ccncc1 [NUCC-0200914] | – | – | IC50 [2, 3]: < 1000 nM
69 | NC1CC(Oc2ncc(-c3ccccc3OC(F)(F)F)c(-n3cnc4ccccc43)n2)C1 (stereo not drawn) [NUCC-0201898, 3-((4-(1H-benzo[d]imidazol-1-yl)-5-(2-(trifluoromethoxy)phenyl)pyrimidin-2-yl)oxy)cyclobutan-1-amine] | – | – | IC50 [2, 3]: < 1000 nM
